What was measured:
calcitonin receptor [1] = biological target: T1, calcitonin receptor (Homo sapiens, UniProt P30988); test: calcitonin agonist test: cAMP generation in T-47D cells; format: cell-based; conditions: for cAMP: basal 1
T1 construct: host or cells: T-47D
T1 sequence (P30988 25-474): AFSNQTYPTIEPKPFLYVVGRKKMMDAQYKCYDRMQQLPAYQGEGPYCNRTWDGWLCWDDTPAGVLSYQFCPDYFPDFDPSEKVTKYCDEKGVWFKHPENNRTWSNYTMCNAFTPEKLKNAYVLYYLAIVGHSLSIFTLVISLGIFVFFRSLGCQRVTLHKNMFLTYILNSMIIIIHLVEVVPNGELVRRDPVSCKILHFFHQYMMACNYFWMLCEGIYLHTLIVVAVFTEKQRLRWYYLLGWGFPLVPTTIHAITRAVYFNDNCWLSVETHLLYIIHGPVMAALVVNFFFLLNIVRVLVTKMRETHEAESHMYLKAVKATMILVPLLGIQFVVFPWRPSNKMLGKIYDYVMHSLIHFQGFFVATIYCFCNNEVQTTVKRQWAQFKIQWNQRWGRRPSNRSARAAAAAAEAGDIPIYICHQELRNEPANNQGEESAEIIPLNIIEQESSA
Description: The second in vitro standard pharmacological test procedure determines the ability of the compound to be evaluated to act as a calcitonin agonist, by measuring the levels of cAMP produced in response to the test compound. The following briefly describes the procedure used and the results obtained.
cAMP was generated in T-47D cells (a human mammary carcinoma cell line available from the American Type Culture Collection, Rockville, Md., USA) according to the following procedure. […] After the incubation was completed, the growth medium was aspirated from the cells in the plate.
Fifty ul of antiserum was added to all wells with the exception of the non-specific binding wells (NSB). Fifty ul of the SPA anti-rabbit reagent was added to all wells.
Intracellular cAMP levels in the T-47D cells following salmon calcitonin stimulation for 10 rain at 37° C. are as follow: […]

[2] = effect on serum calcium levels in young growing rats; format: in vivo, rat; parameters: Serum Calcium: unit not given here; conditions: for Serum Calcium: mean
Procedure: {5R*-[6R*, 7S*, 8R*, 9R*, 12S*, 16S*, 18S*, 19S*, (13E)]} 4, 7, 19-Trihydroxy-2, 6, 8, 12, 12, 14, 16, 18-heptamethyl-6, 7, 8, 9, 10, 11, 12, 15, 16, 17, 18, 19-dodecahydro-1, 19:5, 9-diepoxybenzocyclooctadecen-3(5H)-one was also evaluated in an in vivo standard pharmacological test procedure that measures the effect of the test compound on serum calcium levels. Agents that inhibit bone resorption, such as calcitonin, regulate circulating calcium levels by inhibiting osteoclast mediated osteolysis and thereby inhibit the release of calcium from bone. The decrease in serum calcium levels following drug treatment indicates bone sparing activity. Calcitonin acts on specific membrane receptors of the bone resorbing osteoclast cells eliciting second messenger events such as increased cAMP generation that leads to inhibition of the cell's motility and inhibition of its bone resorbing functional activity. If bone turnover activity is high, such as in the young growing rat, this rapid inhibition in bone resorption is reflected by a transient decrease in circulating calcium. […] Young adult male rats weighing 160-170 g were held for at least 72 hours after receipt to acclimatize to colony conditions and then were randomly assigned to groups of 5-7 rats/group for treatment. The rats were administered vehicle or test compound, and at intervals between 0.5 and 3 hours after dosing, 1.0 ml of blood was collected from each rat under ketamin/acepromazine anesthesia via tail artery or (terminal via) cardiac puncture. Serum was evaluated for total calcium using a NOVA 7+7 blood analyzer.
In this standard pharmacological test procedure, all animals were dosed at 0 hours. For animals treated with the compound of Formula I, animals were bled sequentially. For animals treated with salmon calcitonin and untreated normal animals, a different group was used at each time point.

osteoclasts = test: inhibition of bone resorption by osteoclasts (pits excavated per bone slice); format: cell-based; conditions: Osteoclast, neonatal rat osteoclasts on bovine cortical bone slices, 24 h
Procedure: Briefly, osteoclasts were isolated from neonatal rat long bones by mincing the bones in Medium 199 containing Hank's salts (3 ml per 10 bones from each of 5 animals). Osteoclasts were dislodged from the bone fragments by aspirating the bone fragments 50 times into and out of a transfer pipette. 100 μl of the resulting cell suspension from each animal was then plated onto each of 3 (per dose) 4.4 mm^2 slices of devitalized bovine femoral cortical bone that had been placed in the wells of a 96 well plate and pre-wetted with 100 μl of the medium. The osteoclasts were then allowed to adhere for 25 minutes at 37° C. The slices, with adherent osteoclasts, were then rinsed in 5 ml of medium to remove non-adherent cells. The slices were then transferred to Medium 199 containing Earle's salts with only 0.7 g/L NaHCO3 (to ensure that the medium equilibrates to a pH of 6.8-7.1 in a 5% CO2 atmosphere) and 10% heat-inactivated fetal bovine serum. […] The excavations (pits) made by the osteoclasts in the surface of the bone were visualized by staining with 1% toluidine blue for 3 minutes and bone resorption quantified microscopically by counting the number of pits excavated per slice.

calcitonin receptor [3] = biological target: T2, calcitonin receptor (Rattus norvegicus, UniProt P32214); test: binding to the calcitonin receptor (125I-salmon calcitonin displacement, rat renal plasma membrane); parameters: species or system rat (Sprague-Dawley)
T2 construct: Kidneys were removed and placed in ice cold saline; from tissue; host or cells: Sprague-Dawley rat kidney, renal plasma membrane
T2 sequence (P32214 25-479 isoform P32214-2 limits assumed): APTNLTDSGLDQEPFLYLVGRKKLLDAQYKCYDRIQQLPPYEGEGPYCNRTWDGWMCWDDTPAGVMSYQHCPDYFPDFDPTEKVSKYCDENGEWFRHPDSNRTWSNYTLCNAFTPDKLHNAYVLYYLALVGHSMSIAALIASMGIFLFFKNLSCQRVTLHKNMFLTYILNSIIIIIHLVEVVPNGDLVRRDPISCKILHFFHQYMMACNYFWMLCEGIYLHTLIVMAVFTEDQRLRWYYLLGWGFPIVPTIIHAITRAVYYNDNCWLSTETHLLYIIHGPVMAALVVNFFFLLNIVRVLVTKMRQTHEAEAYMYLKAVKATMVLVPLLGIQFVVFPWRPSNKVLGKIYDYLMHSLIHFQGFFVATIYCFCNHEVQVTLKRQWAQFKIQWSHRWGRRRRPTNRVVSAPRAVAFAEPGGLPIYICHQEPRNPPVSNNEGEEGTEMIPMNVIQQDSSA
Procedure: The first in vitro standard pharmacological test procedure measures the ability of the compound to be evaluated to bind to the calcitonin receptor. The following describes the procedure used and the results obtained.
Adult female or male Sprague-Dawley rats (250-350 gm), were euthanized by CO2 asphyxiation. Kidneys were removed and placed in ice cold saline; all subsequent procedures were carded out at 4° C. Kidneys were decapsulated and coarsely minced with scissors. […]
Samples were incubated for 1 hour at room temperature. […] The filters were counted for a period of 2 minutes per sample utilizing an LKB Betaplate Reader.

With Salmon Calcitonin the cAMP (calcitonin receptor [1]; calcitonin 0.0001 nM, 10 min at 37° C.) was 2 pmol/mL, the cAMP (calcitonin receptor [1]; calcitonin 0.001 nM, 10 min at 37° C.) was 13 pmol/mL and the cAMP (calcitonin receptor [1]; calcitonin 0.01 nM, 10 min at 37° C.) was 105 pmol/mL. For the same compound, the cAMP (calcitonin receptor [1]; calcitonin 0.1 nM, 10 min at 37° C.) was > 640 pmol/mL, the “Serum Calcium” value ([2]; 5 IU/rat, s.c., 0.5 hours, normals 10.92, p < 0.01) was 8.17 and the “Serum Calcium” value ([2]; 5 IU/rat, s.c., 1.5 hours, normals 10.88, p < 0.01) was 7.45. For the same compound, the “Serum Calcium” value ([2]; 5 IU/rat, s.c., 3.0 hours, normals 10.40, p < 0.01) was 6.65.
In the case of `CC1=C2O[C@]3(O)C=C2C(=C(O)C1=O)[C@@H]1O[C@H](CC[C@H](C)/C=C(\C)C[C@@H](C)C[C@@H]3C)[C@H](C)[C@H](O)[C@H]1C` (relative stereo) [Formula I, {5R*-[6R*, 7S*, 8R*, 9R*, 12S*, 16S*, 18S*, 19S*, (13E)]} 4,7, 19-Trihydroxy-2,6,8, 12, 12, 14, 16, 18-heptamethyl-6,7,8,9, 10, 11, 12, 15, 16, 17, 18, 19-dodecahydro-1, 19:5,9-diepoxybenzocyclooctadecen-3(5H)-one], the EC50 (calcitonin receptor [1]; 10 min at 37° C., 10 μM IBMX, read-out: EC50, cAMP production (converted)) is reported as 616 nM, the “calcitonin agonist activity (in words)” value (calcitonin receptor [1]; cAMP) is reported as “potent calcitonin agonist” and the IC50 (osteoclasts) is reported as 0.8 µg/mL. For the same compound, the “Serum Calcium” value ([2]; 10 mg/kg, i.p., 0.5 hours, normals 10.92) was 10.73, the “Serum Calcium” value ([2]; 10 mg/kg, i.p., 1.5 hours, normals 10.88, p < 0.01) was 10.21 and the “Serum Calcium” value ([2]; 10 mg/kg, i.p., 3.0 hours, normals 10.40, p < 0.01) was 9.99. The “Serum Calcium” value ([2]; 30 mg/kg, i.p., 0.5 hours, normals 10.92) was 10.60, the “Serum Calcium” value ([2]; 30 mg/kg, i.p., 1.5 hours, normals 10.88, p < 0.05) was 10.43 and the “Serum Calcium” value ([2]; 30 mg/kg, i.p., 3.0 hours, normals 10.40) was 10.18. For the same compound, the “Serum Calcium” value ([2]; 100 mg/kg, i.p., 0.5 hours, normals 10.92, p < 0.01) was 10.29, the “Serum Calcium” value ([2]; 100 mg/kg, i.p., 1.5 hours, normals 10.88, p < 0.01) was 10.19 and the “Serum Calcium” value ([2]; 100 mg/kg, i.p., 3.0 hours, normals 10.40, p < 0.05) was 10.06. For the same compound, the “reduction of serum calcium levels (in words)” value ([2]; young growing rats, summary statement) was “significantly reduced serum calcium levels”, the “inhibition of the binding of calcitonin to the calcitonin receptor (in words)” value (calcitonin receptor [3]) was “competitively inhibited” and the IC50 (calcitonin receptor [3]; 1 hour at room temperature) was 20.5 µM.

Source: patent US5728727A, “Antiosteoporotic compound” (American Home Products Corporation, priority 1996, dated 1998)
